The results in this text go back to PubChem BioAssay (NCI).

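Method: 48-hour compound exposure of cells in 96-well plates, five concentrations, linear interpolation of endpoints. Abbreviation: GI50, concentration required for 50% inhibition of growth. Definition used: TGI = concentration required for complete inhibition of growth.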

Among the test systems are A498 renal; HL-60(TB) leukemia; NCI-H23 lung; OVCAR-5 ovarian; ACHN renal; CCRF-CEM leukemia; OVCAR-4 ovarian; EKVX NSCLC.
What all share (test): NCI tumour cell line growth inhibition, 48 h

For `Cc1nc(C(N)=O)c(N)n1CCN1CCN(C(=O)CCCCCCCCCCNC2N=CNc3nc[nH]c32)CC1` (centres undefined), the TGI in the test with A498 renal was over 100 µM; with HL-60(TB) leukemia, 60.8 µM; with NCI-H23 lung, over 100 µM; with OVCAR-5 ovarian, over 100 µM; in the test with ACHN renal, over 100 µM; in the test with CCRF-CEM leukemia, 81.9 µM.
`CN1N=CSC12C(=O)N(c1ccccc1)C(=O)N2c1ccccc1` (centres undefined): the TGI in the test with OVCAR-4 ovarian, in the test with A498 renal, in the test on HL-60(TB) leukemia, with NCI-H23 lung, in the test on OVCAR-5 ovarian and with EKVX NSCLC was over 100 µM in each case. Besides, the TGI with ACHN renal and in the test on CCRF-CEM leukemia was over 100 µM each time.
For the molecule `O=C1C2C3C=C4c5ccccc5N(c5ccccc5)C4(C2C(=O)N1c1ccccc1)C1C(=O)N(c2ccccc2)C(=O)C31` (centres undefined), the TGI is 5.13 µM with A498 renal; over 100 µM in the test with HL-60(TB) leukemia; over 100 µM in the test with NCI-H23 lung; over 100 µM with OVCAR-5 ovarian; over 100 µM in the test on ACHN renal; over 100 µM in the test with CCRF-CEM leukemia.
In the case of `CN(C(=O)/C=C/c1ccccc1)C1C2CN3CCC(O2)C13` (centres undefined), the TGI in the test on OVCAR-4 ovarian, with A498 renal, in the test on HL-60(TB) leukemia, in the test on NCI-H23 lung, in the test on OVCAR-5 ovarian and in the test with EKVX NSCLC was over 100 µM in each case. Also, the TGI in the test on ACHN renal and with CCRF-CEM leukemia was over 100 µM throughout.
`O=C1C[C@H]2CCCN2[C@@H](c2ccccc2)C1`: the TGI in the test with OVCAR-4 ovarian, in the test on A498 renal, in the test on HL-60(TB) leukemia, in the test with NCI-H23 lung, with OVCAR-5 ovarian and with EKVX NSCLC was over 100 µM throughout. The TGI in the test on ACHN renal and in the test on CCRF-CEM leukemia was over 100 µM throughout.
Consider `CCc1cccc(C)c1NS(=O)(=O)c1ccccc1`, for which the TGI in the test with OVCAR-4 ovarian, in the test with A498 renal, in the test with HL-60(TB) leukemia, with NCI-H23 lung, in the test on OVCAR-5 ovarian and with EKVX NSCLC was over 100 µM throughout. For the same molecule, the TGI in the test on ACHN renal and in the test with CCRF-CEM leukemia was over 100 µM in each case.
For the molecule `O=c1cc(-c2cccs2)[nH]c2cc3c(cc12)OCO3`, the TGI was over 22.2 µM in the test with OVCAR-4 ovarian; 16.2 µM in the test with A498 renal; 40.1 µM with HL-60(TB) leukemia; over 100 µM with NCI-H23 lung; over 100 µM in the test on OVCAR-5 ovarian; over 100 µM in the test on EKVX NSCLC. The TGI in the test on ACHN renal and in the test with CCRF-CEM leukemia was over 100 µM in each case.
On to `O=c1ncccn1[C@@H]1O[C@H](CO)[C@H](O)C1O` (some centres undefined), for which the TGI with OVCAR-4 ovarian, in the test on A498 renal, with HL-60(TB) leukemia, in the test on NCI-H23 lung, with OVCAR-5 ovarian and in the test on EKVX NSCLC was over 100 µM throughout. Besides, the TGI with ACHN renal and with CCRF-CEM leukemia was over 100 µM throughout.
For `Nc1ncnc2c1ncn2C1OC(CSCC(F)(F)F)C(O)C1O` (centres undefined), the TGI with OVCAR-4 ovarian, in the test on HL-60(TB) leukemia, with NCI-H23 lung, with OVCAR-5 ovarian, with EKVX NSCLC and in the test with ACHN renal was over 100 µM each time.
Turning to `CCNCCNC(=O)c1ccc(I)cc1`, the TGI in the test on OVCAR-4 ovarian, in the test with A498 renal, in the test with HL-60(TB) leukemia, in the test on NCI-H23 lung, with OVCAR-5 ovarian and in the test on EKVX NSCLC was over 100 µM each time. Besides, the TGI with ACHN renal and in the test on CCRF-CEM leukemia was over 100 µM throughout.
In the case of `c1cc[c]([Sn][c]2ccccc2)cc1`, the GI50 was 24 µM with OVCAR-4 ovarian; 20.5 µM in the test on HL-60(TB) leukemia; 15 µM with NCI-H23 lung; 15 µM in the test on OVCAR-5 ovarian; 28.3 µM with EKVX NSCLC; 27.2 µM in the test with ACHN renal. Also, the GI50 in the test on CCRF-CEM leukemia is 21.9 µM. The TGI is 55.2 µM in the test on OVCAR-4 ovarian; 41.9 µM in the test with HL-60(TB) leukemia; 23.3 µM in the test with NCI-H23 lung; over 57.5 µM with OVCAR-5 ovarian; over 61.2 µM in the test on EKVX NSCLC; 69.8 µM in the test on ACHN renal. The TGI in the test with CCRF-CEM leukemia turned out to be 62.7 µM.
For `Cc1cc2c(C)nn(Cc3ccccc3)c2c(C(=O)O)c1C`, the TGI in the test with HL-60(TB) leukemia, in the test with NCI-H23 lung, with OVCAR-5 ovarian, in the test with EKVX NSCLC, in the test with ACHN renal and in the test on CCRF-CEM leukemia was over 100 µM in each case.
Regarding `CC(=O)OCc1c2ccccc2c(C)c2c1cc(F)c1ccccc12`, the TGI is 77.9 µM in the test with OVCAR-4 ovarian; over 100 µM in the test with A498 renal; 67.8 µM in the test with HL-60(TB) leukemia; 68.4 µM in the test with NCI-H23 lung; over 100 µM in the test with OVCAR-5 ovarian; over 100 µM in the test on EKVX NSCLC. Further, the values for the TGI in the test with ACHN renal and with CCRF-CEM leukemia were 46.9 µM and 40.5 µM, respectively.
As to `O=C(O)CCNS(=O)(=O)c1ccc(NC(=O)c2ccccc2)cc1`, the TGI with OVCAR-4 ovarian, in the test on A498 renal, in the test with HL-60(TB) leukemia, with NCI-H23 lung, with OVCAR-5 ovarian and in the test with EKVX NSCLC was over 100 µM each time. In addition, the TGI in the test on ACHN renal and in the test on CCRF-CEM leukemia was over 100 µM throughout.
Regarding `Cn1ccnc1CCc1c(Cl)cccc1Cl`, the TGI in the test on OVCAR-4 ovarian, in the test on A498 renal, in the test on HL-60(TB) leukemia, in the test with NCI-H23 lung, in the test on OVCAR-5 ovarian and with ACHN renal was over 100 µM each time. The molecule further returned a TGI in the test on CCRF-CEM leukemia of over 100 µM.
As for `CCOC(=O)Cc1nc2ccc3c(c2[nH]c1=O)C(=O)c1ccccc1C3=O`, the TGI is over 100 µM with OVCAR-4 ovarian; over 100 µM with A498 renal; over 100 µM in the test on NCI-H23 lung; over 100 µM with OVCAR-5 ovarian; 28.5 µM in the test with EKVX NSCLC; over 100 µM with ACHN renal. Also, the TGI in the test with CCRF-CEM leukemia was over 100 µM.
